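Briefly, cells in 96-well plates were exposed to five compound concentrations for 48 h, and endpoints were estimated by linear interpolation. The concentration for 50% growth inhibition is given as GI50.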 Active and inactive are the calls of the source. Cut-off read from the data, not from the text of the source: active = GI50 up to about 1.1 µM and inactive = higher. Non-standard residues stand in square brackets, D forms with d. Residues, ends and D or L forms follow the SMILES beside them. *: point of attachment. Phe(4-NO2) = N[CH](Cc1ccc([N+](=O)[O-])cc1)C(=O)O; Boc = CC(C)(C)OC(=O)*
Key:
Assay in all cases: NCI tumour cell line growth inhibition, 48 h
SW-620 = tested on: SW-620
SK-MEL-28 = tested on: SK-MEL-28
OVCAR-8 = tested on: OVCAR-8
IGROV-1 = tested on: IGROV-1
NCI/ADR-RES = tested on: NCI/ADR-RES
UACC-62 = tested on: UACC-62
SK-OV-3 = tested on: SK-OV-3
SN12C = tested on: SN12C
MDA-MB-231 = tested on: MDA-MB-231
MOLT-4 = tested on: MOLT-4
ACHN = tested on: ACHN
SK-MEL-5 = tested on: SK-MEL-5
NCI-H226 = tested on: NCI-H226
HL-60 = tested on: HL-60
RPMI-8226 = tested on: RPMI-8226

SMILES | GI50 (SW-620) | GI50 (SK-MEL-28) | GI50 (OVCAR-8) | GI50 (IGROV-1) | GI50 (NCI/ADR-RES) | GI50 (UACC-62) | GI50 (SK-OV-3) | GI50 (SN12C) | GI50 (MDA-MB-231) | GI50 (MOLT-4) | GI50 (ACHN) | GI50 (SK-MEL-5) | GI50 (NCI-H226) | GI50 (HL-60) | GI50 (RPMI-8226)
Cc1nn(CN2CCN(C)CC2)c(=S)n1/N=C/c1ccc(-c2ccc(Cl)cc2Cl)o1 | 42.7 µM (inactive) | > 100 µM (inactive) | 51.3 µM (inactive) | 81.8 µM (inactive) | 62.7 µM (inactive) | 99.5 µM (inactive) | > 100 µM (inactive) | > 100 µM (inactive) | 63.8 µM (inactive) | 30.5 µM (inactive) | > 100 µM (inactive) | 43.3 µM (inactive) | 29.4 µM (inactive) | 32.7 µM (inactive) | 
CC(=O)/C(=C/n1c(=S)[nH]c2ccccc21)C(=O)Nc1ccccc1C | > 100 µM (inactive) | > 100 µM (inactive) | > 100 µM (inactive) | > 100 µM (inactive) | > 100 µM (inactive) |  | > 100 µM (inactive) | > 100 µM (inactive) | > 100 µM (inactive) | > 100 µM (inactive) | > 100 µM (inactive) | > 100 µM (inactive) | > 100 µM (inactive) | > 100 µM (inactive) | 
S=C(Nc1ccc2c(c1)oc1ccccc12)c1cccs1 | > 100 µM (inactive) | > 100 µM (inactive) | 18.7 µM (inactive) | 37.1 µM (inactive) | > 100 µM (inactive) | 82.8 µM (inactive) | 37.9 µM (inactive) | > 100 µM (inactive) | 21.7 µM (inactive) | > 100 µM (inactive) | > 100 µM (inactive) | > 100 µM (inactive) | > 100 µM (inactive) | > 100 µM (inactive) | 
COc1ccc(-n2nnc3c(C#N)c(-c4ccccc4)c(C)n3c2=O)cc1 | 27.2 µM (inactive) | > 100 µM (inactive) | 27.4 µM (inactive) | 24 µM (inactive) | 66.2 µM (inactive) | 53.7 µM (inactive) | > 100 µM (inactive) | 62.5 µM (inactive) | 25.2 µM (inactive) |  | 30.1 µM (inactive) | 14.8 µM (inactive) | 85.1 µM (inactive) | 3.69 µM (inactive) | 26.1 µM (inactive)
OC1NC2Nc3ccccc3NC2NC1O (centres undefined) | > 100 µM (inactive) | > 100 µM (inactive) | > 100 µM (inactive) | > 100 µM (inactive) | > 100 µM (inactive) | > 100 µM (inactive) | > 100 µM (inactive) | > 100 µM (inactive) | > 100 µM (inactive) | > 100 µM (inactive) | > 100 µM (inactive) | > 100 µM (inactive) | > 100 µM (inactive) | > 100 µM (inactive) | 
COc1cc(/C=C2/SC(c3ccccc3)N(Cc3ccccc3)C2=O)cc(OC)c1OC (centres undefined) | 63.2 µM (inactive) | 47.1 µM (inactive) | 37.7 µM (inactive) |  | 35 µM (inactive) | 42.5 µM (inactive) | 41.1 µM (inactive) | 21.5 µM (inactive) | > 100 µM (inactive) | 14.4 µM (inactive) | 44.8 µM (inactive) | 12.1 µM (inactive) | 53.7 µM (inactive) |  | 14.4 µM (inactive)
CCN(CC)C(=S)N/N=C/c1cc([N+](=O)[O-])ccc1O | 6.35 µM (inactive) | 5.11 µM (inactive) | 3.56 µM (inactive) | 3.65 µM (inactive) | 3.01 µM (inactive) | 3.27 µM (inactive) | 3.95 µM (inactive) | 4.88 µM (inactive) | 8.18 µM (inactive) | 1.8 µM (inactive) | 3.36 µM (inactive) | 2.02 µM (inactive) | 2.31 µM (inactive) | 1.69 µM (inactive) | 
COc1ccc2c(c1)C/C(=C\c1cccc3ccccc13)C2=O | 3.98 µM (inactive) | 3.93 µM (inactive) | 21.7 µM (inactive) | 17.3 µM (inactive) | 4.66 µM (inactive) | 12.5 µM (inactive) | 16.8 µM (inactive) | 8.87 µM (inactive) |  | 4.89 µM (inactive) | 27.6 µM (inactive) | 4.05 µM (inactive) | 10.5 µM (inactive) | 4.95 µM (inactive) | 25.3 µM (inactive)
CCOC(=O)C1=CN/C(=C(/C)C(=O)OC)SC1C(=O)OCC (centres undefined) | > 100 µM (inactive) | > 100 µM (inactive) | > 100 µM (inactive) | > 100 µM (inactive) | > 84.3 µM (inactive) | > 100 µM (inactive) | > 100 µM (inactive) | > 100 µM (inactive) | > 100 µM (inactive) | 25.6 µM (inactive) | > 100 µM (inactive) | 58.3 µM (inactive) | > 100 µM (inactive) |  | 68.9 µM (inactive)
COCCCNc1c2ccccc2nc2ccccc12 | 2.44 µM (inactive) | 2.44 µM (inactive) | 2.68 µM (inactive) | 3.56 µM (inactive) | 3.82 µM (inactive) | 2.18 µM (inactive) | 2.78 µM (inactive) | 3.24 µM (inactive) | 3.25 µM (inactive) | 3.57 µM (inactive) | 0.813 µM (active) | 2.14 µM (inactive) |  | 3.87 µM (inactive) | 
Clc1ccc(-c2cn3c(nc4ccccc43)c(/C=C/c3cccs3)n2)cc1 | > 100 µM (inactive) | > 100 µM (inactive) |  | 92 µM (inactive) | > 100 µM (inactive) | > 100 µM (inactive) | > 100 µM (inactive) | > 100 µM (inactive) | 53.7 µM (inactive) |  | > 100 µM (inactive) | > 100 µM (inactive) | > 100 µM (inactive) | > 100 µM (inactive) | 36.5 µM (inactive)
O=C(Nc1ccc(Cl)c(Cl)c1)OCCN1c2ccccc2Sc2ccccc21 | > 10 µM (inactive) | > 10 µM (inactive) | > 10 µM (inactive) | > 10 µM (inactive) | > 10 µM (inactive) | > 10 µM (inactive) | > 10 µM (inactive) | > 10 µM (inactive) | > 10 µM (inactive) | > 10 µM (inactive) | > 10 µM (inactive) | > 10 µM (inactive) |  | > 10 µM (inactive) | > 10 µM (inactive)
Fc1c(F)c(C(F)(F)F)c(F)c(F)c1N/N=C\c1c[nH]c2ccccc12 | 3.37 µM (inactive) | 6.82 µM (inactive) | 6.43 µM (inactive) | 1.26 µM (inactive) | 2.13 µM (inactive) | 2.44 µM (inactive) | 1.39 µM (inactive) | 3.13 µM (inactive) | 3.03 µM (inactive) | 2.19 µM (inactive) | 6.64 µM (inactive) | 1.82 µM (inactive) |  | 2.54 µM (inactive) | 2.81 µM (inactive)
O=C1C/C(=C\c2ccccc2)C(=O)c2ccccc2N1 | 19.5 µM (inactive) | 29.5 µM (inactive) | 18.8 µM (inactive) | 18.6 µM (inactive) | 23.6 µM (inactive) | 19.2 µM (inactive) | 35.2 µM (inactive) | 18.5 µM (inactive) | 23.8 µM (inactive) | 45.5 µM (inactive) | 25.1 µM (inactive) | 20.3 µM (inactive) | 24.3 µM (inactive) | 20.8 µM (inactive) | 
CC(Br)CN1CCOCC1 (centres undefined) | > 100 µM (inactive) | > 100 µM (inactive) | > 100 µM (inactive) | > 100 µM (inactive) | > 100 µM (inactive) | > 100 µM (inactive) | > 100 µM (inactive) | > 100 µM (inactive) | > 100 µM (inactive) |  | > 100 µM (inactive) | > 100 µM (inactive) | > 100 µM (inactive) | 10.5 µM (inactive) | > 100 µM (inactive)
Nc1n2nc(-c3ccccc3)sc2n[n+]1CC(=O)c1ccccc1 | 4.89 µM (inactive) | 25.4 µM (inactive) | 15.1 µM (inactive) | 12.6 µM (inactive) | 14 µM (inactive) | 7.06 µM (inactive) | 16.7 µM (inactive) | 27.6 µM (inactive) |  | 3.66 µM (inactive) | 12.9 µM (inactive) | 7.43 µM (inactive) | 16.7 µM (inactive) |  | 12.5 µM (inactive)
Cc1cc2nc(N3C(=O)/C(=C/Cc4ccco4)N=C3c3ccccc3)sc2cc1C | 31.3 µM (inactive) | 64.6 µM (inactive) | 31.6 µM (inactive) | 21.3 µM (inactive) | 27.6 µM (inactive) | 23.3 µM (inactive) | 92 µM (inactive) | 25.6 µM (inactive) | 51.5 µM (inactive) | 20.3 µM (inactive) | 26.7 µM (inactive) | 22.3 µM (inactive) |  | 23 µM (inactive) | 23.7 µM (inactive)
O=C1/C(=C\c2ccc(Cl)cc2Cl)Sc2scc(-c3ccc(O)c(O)c3)[n+]21 | 14 µM (inactive) | 15.9 µM (inactive) | 17.2 µM (inactive) | 21.2 µM (inactive) | 15.1 µM (inactive) | 7.36 µM (inactive) | 15.8 µM (inactive) | 15.9 µM (inactive) | 16.5 µM (inactive) | 9.64 µM (inactive) | 18.8 µM (inactive) | 7.98 µM (inactive) | 15.5 µM (inactive) | 8.77 µM (inactive) | 
N#Cc1nc(Cc2cccs2)oc1N | > 100 µM (inactive) | > 100 µM (inactive) | > 100 µM (inactive) | > 100 µM (inactive) |  | > 100 µM (inactive) | > 100 µM (inactive) | > 100 µM (inactive) | > 100 µM (inactive) | > 100 µM (inactive) | > 100 µM (inactive) | > 100 µM (inactive) |  | > 100 µM (inactive) | > 100 µM (inactive)
COC(=O)CCC(NC(=O)OC(C)(C)C)C(=O)NC(Cc1ccc([N+](=O)[O-])cc1)C(=O)NC(CCC(=O)OC)C(=O)OC (centres undefined) (Boc-Glu(OMe)-[Phe(4-NO2)]-Glu(OMe)-OMe; configuration not given here) | > 100 µM (inactive) | > 100 µM (inactive) | > 100 µM (inactive) | > 100 µM (inactive) | > 100 µM (inactive) | > 100 µM (inactive) | > 100 µM (inactive) | 51.9 µM (inactive) | > 100 µM (inactive) | 24.9 µM (inactive) | > 100 µM (inactive) | > 100 µM (inactive) | 74.8 µM (inactive) |  | 27 µM (inactive)
